Measured values as given in US9597327B2, “Synthesis of (R)-N-methylnaltrexone” (Progenics Pharmaceuticals, Inc., priority 2005, dated 2017).
Where a name gives a salt, the structure may show the parent alone.

What was measured:
chronic opioid user = details: intravenously; subjects receiving opioids chronically; cited from earlier work
[1] = opioid agonist / antagonist character of the MNTX stereoisomers (stated, no method given); details: statement in words, no assay described

Structure (SMILES) | dose required to induce immediate laxation (chronic opioid user) | opioid activity (agonist or antagonist) [1]
C[N+]1(CC2CC2)CC[C@]23c4c5ccc(O)c4O[C@H]2C(=O)CC[C@@]3(O)[C@H]1C5 (stereo partly drawn) [MNTX, Methylnaltrexone] | about 0.15 mg/kg | 
C[N+]1(CC2CC2)CC[C@]23c4c5ccc(O)c4O[C@H]2C(=O)CC[C@@]3(O)[C@H]1C5 (stereo partly drawn) [R-MNTX, morphinanium, 17R, 17-(cyclopropylmethyl)-4,5-epoxy-3,14-dihydroxy-17-methyl-6-oxo-, salt, (5α)-(9Cl)] |  | opioid antagonist
C[N@@+]1(CC2CC2)CC[C@]23c4c5ccc(O)c4OC2C(=O)CCC3(O)C1C5 (stereo partly drawn) [S-MNTX] |  | opioid agonist
